One data set has as its target T1, KEAP1 (Homo sapiens, UniProt Q14145).
T1 construct: full-length, human KEAP1 (28023, Addgene) was transiently expressed from a pcDNA/FRT/TO plasmid with a C-terminal 3×FLAG tag; host or cells: HEK293T
Briefly: MGx dose-response HMW-KEAP1 formation in FLAG-KEAP1 lysates or purified KEAP1. The format is biochemical. The settings on record: FLAG-KEAP1 containing lysates or purified KEAP1, freshly distilled MGx. How it is done: Metabolite Treatments and HMW-KEAP1 screening. For in vitro screening of glycolytic metabolites, HEK293T cells expressing FLAG-KEAP1 were lysed by snap-freeze-thaw cycles (3×) in PBS, pH 7.4, containing EDTA-free complete protease inhibitor (Roche). Lysates were cleared by centrifugation and the supernatants normalized for concentration by Bradford reagent (2 mg/mL). Concentrated stocks of each metabolite were made in PBS, which were added to the lysate samples for the final indicated concentrations and incubated at 37° C. for 2.5 hours with shaking. Following incubation, samples were denatured with 6 M urea and processed for SDS-PAGE and western blotting. Methylglyoxal (40% v/v with H2O), glyceraldehyde 3-phosphate (GAP), dihydroxyacetone phosphate (DHAP), and 2,3-bisphosphoglycerate (2,3-BPG) were all obtained from Sigma Aldrich and used as PBS stocks. […] Each mixture was incubated at 37° C. for 8 hours with rotating, HMW-KEAP1 formation was analyzed by SDS-PAGE and western blot.
For studies with recombinant KEAP1, FLAG-KEAP1 was expressed in HEK293T cells from transient transfection of the Flag-Keap1 plasmid (Addgene plasmid #28023). […] 12 μL of this reaction was then separated by SDS-PAGE and the presence of HMW-KEAP1 evaluated by anti-FLAG Western blotting as described or by silver staining using the Pierce Silver Stain Kit (ThermoFisher Scientific).

A further data set relates to IMR32. The data set is described as follows: Seahorse XF96 global bioenergetics in IMR32 cells. The format is cell-based. The settings on record: IMR32, 1 hr. How it is done: Cells were plated for 24 hrs., then incubated with the indicated doses of CBR-470 for 1 hr. Under CBR-470-1 treated conditions, cellular ECAR and OCR was recorded for CBR-470 alone, CBR-470+10 mM Glucose, and CBR-470+3 μM Oligomycin.
Genetic manipulation of central glycolytic targets GLO1 and PGK1 regulate viability in the very sensitive colorectal cancer cell line HCT116. […] (FIG. 42). […] Cells were plated for 24 hrs., then incubated with the indicated doses of CBR-470 for 1 hr. Under CBR-470-1 treated conditions, cellular ECAR and OCR was recorded for CBR-470 alone, CBR-470+10 mM Glucose, and CBR-470+3 μM Oligomycin.

Data set [1] is described as follows: LC-MS quantification of compound incubated with or without GSH (glutathione reactivity). The settings on record: 50 μM compound, GSH 1 mM in PBS, 1 hour and 48 hours. The data set is classed as physicochemical. How it is done:
FIG. 4 A high throughput screen identifies a non-covalent NRF2 activator chemical series which activate a robust NRF2 transcriptional program in multiple cell types. LC-MS quantification of CBR-470-1 (50 μM) incubated in the presence or absence of GSH (1 mM) in PBS for 1 hour (left) and 48 hours (right). Relative ion intensities within each time point were compared with representative chromatograms shown (n=2).

Results on two compounds are retold here after patent US12048686B2, “Compositions and methods for activating NRF2-dependent gene expression” (The University of Chicago, priority 2018, dated 2024).

T1 sequence (Q14145 whole entry): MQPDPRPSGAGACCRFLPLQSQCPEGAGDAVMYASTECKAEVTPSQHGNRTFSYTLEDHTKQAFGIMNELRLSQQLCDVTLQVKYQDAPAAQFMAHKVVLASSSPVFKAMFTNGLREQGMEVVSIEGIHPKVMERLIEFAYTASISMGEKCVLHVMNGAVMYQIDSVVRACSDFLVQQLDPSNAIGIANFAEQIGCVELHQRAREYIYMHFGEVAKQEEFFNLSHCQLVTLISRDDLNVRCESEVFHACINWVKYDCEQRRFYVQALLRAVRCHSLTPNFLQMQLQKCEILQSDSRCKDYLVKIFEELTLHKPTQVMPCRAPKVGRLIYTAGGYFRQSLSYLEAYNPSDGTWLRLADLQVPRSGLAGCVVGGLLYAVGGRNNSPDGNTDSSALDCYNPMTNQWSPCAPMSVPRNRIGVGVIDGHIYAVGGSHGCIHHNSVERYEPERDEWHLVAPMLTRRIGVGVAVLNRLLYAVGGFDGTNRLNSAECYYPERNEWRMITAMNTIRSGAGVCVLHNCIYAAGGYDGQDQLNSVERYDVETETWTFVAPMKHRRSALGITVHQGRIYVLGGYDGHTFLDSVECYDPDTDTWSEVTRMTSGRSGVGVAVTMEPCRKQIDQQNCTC

In the case of `CC(=O)C=O` [MGx, methylglyoxal, reference compound], at KEAP1, the “formation of HMW-KEAP1” value is “dose-dependent formation of HMW-KEAP1 at mid-μM concentrations”.
In the case of `CC(C)CN[C@H]1CS(=O)(=O)C[C@@H]1S(=O)(=O)c1ccc(Cl)cc1` [CBR-470-1], in the data set with IMR32, the “glycolytic flux (Extracellular Acidification Rate, ECAR)” value is “reduced glycolytic flux and oxidative phosphorylation rate”; the “oxidative phosphorylation rate (Oxygen Consumption Rate, OCR)” value is “reduced glycolytic flux and oxidative phosphorylation rate”. In addition, the “reactivity in glutathione assays” value in data set [1] is listed as “not reactive in glutathione assays”.
